Measurements published in patent US8961959B2, “Glucosylceramide synthase inhibitors and therapeutic methods using the same” (The Regents of the University of Michigan, priority 2011, dated 2015).

System: Sandhoff (Hexb−/−) mice
Test: Juvenile Sandhoff (Hexb−/−) mice treated with compound 3h
Format: in vivo, mouse
Conditions: for Neutral Lipids GA2: p-15 Sandhoff mice; for Total Siatic Acid: Hexb −/− p-15, 60 mg/kg/day i.p. p-9 to p-15, resorcinol assay
Protocol: The SV/129 Hexb−/− mice were obtained from the NIH. The mice were derived by the disruption of the murine Hexb gene and transferring this gene into the mouse genome via homologous recombination and embryonic stem cell technology as previously described (38). The genotypes of mice were determined by PCR as previously described. Mice were propagated and housed in plastic cages with filter tops containing Sani-Chip bedding (P.J. Murphy Forest Products Corp.; Montville, N.J.). Food and water were provided ad libitum. Nursing females were provided with cotton nesting pads for the duration of the experiment.
The solution was dried under nitrogen, resuspended in 3.6 ml distilled H2O, then dissolved at 42° C. in a shaking water bath. The solution was neutralized by adding 400 μl of 10× phosphate buffer saline (PBS), and was sterilized following passage through an Acrodisc 0.2 μm syringe filter (Sigma, St. Louis, Mo.). […] The mice were weighed daily and received intraperitoneal (i.p.) injections equivalent to 60 mg/kg from postnatal day 9 (p-9) to postnatal day 15 (p-15). Control mice received i.p. injections of PBS. Injections were performed using a Hamilton syringe (26 gauge, point style 2, 0.5 inch needle) (Hamilton, Reno, Nev.), and volumes ranged from 50 ul to 100 μl/mouse. The mice were sacrificed 4 hrs after the final injection on p-15. Cerebrum, cerebellum, and liver were dissected and frozen on dry ice to determine wet weight. The tissues then were homogenized in 3.0 ml distilled H2O, and 150 μl of each homogenate was set aside for analysis of protein and lysosomal enzyme activities. The remaining homogenate was frozen at −80° C., lyophilized, then weighed before lipid extraction. […]
Lipid extraction of lyophilized tissue was performed overnight in 5 ml CHCl3:CH3OH 1:1 (v/v). Samples were spun down at 2500 rpm for 20 min, and the supernatant was collected. Pellets were washed in 2 ml CHCl3:CH3OH 1:1 (v/v), spun down again, and the total 7 ml of supernatant was brought up to a final volume of 19.6 ml at a ratio of 30:60:8 CHCl3:CH3OH:dH2O (v/v/v).
Neutral lipids and cholesterol were separated from acidic lipids and gangliosides by ion exchange chromatography as we described (32, 28, 24). The total lipid extract, suspended in CHCl3:CH3OH:dH2O, 30:60:8 by volume (solvent A), was applied to a DEAE Sephadex column (1.2 mL bed volume) that had been equilibrated prior with solvent A (28). The column was washed twice with 20 mL solvent A and the entire neutral lipid fraction, consisting of the initial eluent plus washes, was collected. This fraction contained cholesterol, phosphatidylcholine, phosphatidylethanolamine and plasmalogens, sphingomyelin, and neutral GSLs to include cerebrosides and asialo-GM2 (GA2). Next, acidic lipids were eluted from the column with 35 mL CHCl3:CH3OH:0.8 M Na acetate, 30:60:8 by volume. Gangliosides were separated from acidic phospholipids by Folch partitioning, base treated, and desalted as previously described (32, 28). Neutral lipids were dried by rotary evaporation and resuspended in 10 mL CHCl3:CH3OH (2:1; v/v). A 4 mL aliquot was evaporated under nitrogen, base treated with 1 N NaOH, and Folch partitioned. The Folch lower phase containing GA2 was evaporated under nitrogen and resuspended in 4 mL CHCl3:CH3OH (2:1; v/v).
Total ganglioside content was quantified before and after desalting using the resorcinol assay as previously described (28). Sialic acid values were fit to a standard curve using n-acetylneuraminic acid as a standard.
All lipids were analyzed qualitatively by high-performance thin-layer chromatography (HPTLC) according to previously described methods (28, 24, 25). Lipids were spotted on 10 cm×20 cm Silica gel 60 HPTLC plates (E. Merck, Darmstadt, Germany) using a Camag Linomat III auto-TLC spotter (Camag Scientific, Inc., Wilmington, N.C.). […]

[1] = Hexb −/− mice p-15, 60 mg/kg/day i.p. p-9 to p-15, mean ± SEM
[2] = cerebellum, Hexb −/− p-15, 60 mg/kg/day
[3] = cerebrum, Hexb −/− p-15, 60 mg/kg/day
[4] = liver, Hexb −/− p-15, 60 mg/kg/day

## O=C(CC1Cc2ccccc2C1)N[C@H](CN1CCCC1)[C@H](O)c1ccc2c(c1)OCCO2 [Compound 3h, 2-(2,3-dihydro-1H-inden-2-yl)-N-((1R,2R)-1-(2,3-dihydrobenzo[b][1,4]dioxin-6-yl)-1-hydroxy-3-(pyrrolidin-1-yl)propan-2-yl)acetamide]
60 mg/kg/day p-9 to p-15
  adverse effects on body weight over the treatment period: no adverse effects
Cerebellum
  Neutral Lipids GA2: 0.55 ± 0.01 mg/100 mg dry weight
Cerebrum
  Neutral Lipids GA2: 0.51 ± 0.01 mg/100 mg dry weight
Hexb −/− mice p-15, 60 mg/kg/day i.p. p-9 to p-15 (oxalate), mean ± SEM
  Body Weight: 9.0 ± 0.5 g
[1]
  Water Content Cerebellum: 83.88 ± 0.01%
  Water Content Cerebrum: 84.45 ± 0.01%
  Wet Weight Cerebellum: 87.7 ± 7.7 mg
  Wet Weight Cerebrum: 271.0 ± 2.3 mg
Liver
  Neutral Lipids GA2: 1.10 ± 0.05 mg/100 mg dry weight
Cerebellum of Hexb −/− mice
  reduction of GM2 content: 53%
cerebellum, 60 mg/kg/day p-9 to p-15
  total sialic content lower than in control Hexb −/− mice: 14%
[2]
  G1a Concentration: 76.6 ± 3.7 micrograms of sialic acid per 100 mg dry weight
  G1a Percent: 24.1 ± 0.3%
  GD1b Concentration: 42.1 ± 2.0 micrograms of sialic acid per 100 mg dry weight
  GD1b Percent: 24.1 ± 0.3%
  GD3 Concentration: 9.8 ± 1.2 micrograms of sialic acid per 100 mg dry weight
  GD3 Percent: 4.3 ± 0.2%
  GM1 Concentration: 17.4 ± 1.4 micrograms of sialic acid per 100 mg dry weight
  GM1 Percent: 5.5 ± 0.4%
  GM2 Concentration: 9.8 ± 1.2 micrograms of sialic acid per 100 mg dry weight
  GM2 Percent: 3.1 ± 0.1%
  GQ1b Concentration: 41.3 ± 3.8 micrograms of sialic acid per 100 mg dry weight
  GQ1b Percent: 12.9 ± 0.1%
  GT1a/LD1 Concentration: 22.9 ± 1.0 micrograms of sialic acid per 100 mg dry weight
  GT1a/LD1 Percent: 7.2 ± 0.1%
  GT1b Concentration: 94.4 ± 3.9 micrograms of sialic acid per 100 mg dry weight
  GT1b Percent: 29.7 ± 0.8%
cerebellum, mean ± SEM
  Total Siatic Acid: 318 ± 15
Cerebrum of Hexb −/− mice
  reduction of GM2 content: 52%
cerebrum, 60 mg/kg/day p-9 to p-15
  total sialic content lower than in control Hexb −/− mice: 11%
[3]
  G1a Concentration: 187.4 ± 5.2 micrograms of sialic acid per 100 mg dry weight
  G1a Percent: 43.4 ± 0.3%
  GD1b Concentration: 31.7 ± 0.5 micrograms of sialic acid per 100 mg dry weight
  GD1b Percent: 7.3 ± 0.1%
  GM1 Concentration: 26.4 ± 1.6 micrograms of sialic acid per 100 mg dry weight
  GM1 Percent: 6.1 ± 0.2%
  GM2 Concentration: 87.7 ± 7.7 micrograms of sialic acid per 100 mg dry weight
  GM2 Percent: 2.8 ± 0.1%
  GQ1b Concentration: 33.3 ± 0.7 micrograms of sialic acid per 100 mg dry weight
  GQ1b Percent: 7.7 ± 0.1%
  GT1a/LD1 Concentration: 20.8 ± 0.7 micrograms of sialic acid per 100 mg dry weight
  GT1a/LD1 Percent: 4.8 ± 0.3%
  GT1b Concentration: 119.8 ± 3.3 micrograms of sialic acid per 100 mg dry weight
  GT1b Percent: 27.8 ± 0.1%
cerebrum, mean ± SEM
  Total Siatic Acid: 432 ± 11
In words
  body weight versus control Hexb −/− mice: slightly higher
liver, versus PBS-treated Hexb −/− controls
  reduction of NGNA-GM2 content: 45%
liver, 60 mg/kg/day p-9 to p-15
  total sialic content lower than in control Hexb −/− mice: 38%
[4]
  G1a Concentration: 12.2 ± 0.3 micrograms of sialic acid per 100 mg dry weight
  G1a Percent: 17.6 ± 1.1%
  GM1 Concentration: 15.4 ± 2.1 micrograms of sialic acid per 100 mg dry weight
  GM1 Percent: 21.9 ± 1.5%
  GM2 Concentration: 42.1 ± 2.6 micrograms of sialic acid per 100 mg dry weight
  GM2 Percent: 60.5 ± 1.3%
liver, mean ± SEM
  Total Siatic Acid: 70 ± 5
p=0.06
  reduction of GA2 in Hexb −/− liver: not significant
